# Reference: PMC7232244, “Aspartic Acid Isomerization Characterized by High Definition Mass Spectrometry Significantly Alters the Bioactivity of a Novel Toxin from Poecilotheria” (Toxins, 2020)
# Numbered stars: 1 amine (or outer) side, 2 acyl side, 3 side chain; on linkers, the order of the positions; unused ones are H or OH. Bridge positions count the residues as written; N and C are the ends. Square brackets hold non-standard residues; d marks the D form. Peptide text beside a SMILES is read from it. βAsp = O=C(O)[C@H](CC(=O)[*:2])N[*:1]
# Type: physicochemical
# Settings: chromatographic, reversed-phase UPLC BEH C18, 0.10% formic acid/acetonitrile gradient; P. vittata venom (Figure 3A); taken as increased solubility / loss of hydrophobicity
# Description: We used an iterative series of analytical processes to identify potential peptide modulators for neuronal activity and subsequently identified their primary structure, including PTMs, that may alter their efficacy and potency. In the initial phase of toxin selection, venom from Poecilotheria were collected and screened by HDMS^E. The venom was a complex mixture of molecules with a high percentage of proteinaceous materials ranging from 3–6 kDa with an average venom yield from 50 collections (five from each of the ten species) of ~148 ± 12 μg of total protein per μL of venom as determined by conventional Bradford assay (data not shown). An analytical screening of each venom was performed for preliminary compound identification and any PTMs, e.g., isobaric conformations. 100 μg of lyophilized venom from each species of Poecilotheria were suspended in 1 mL of the initial mobile phase and a 1 μL aliquot injection was made into an UPLC coupled to a HDMS. […]
# In order to calculate the molecular mass, we deconvoluted the charge envelope of each peptide using high-resolution mass spectrometry MS scans (“MS” in HDMS^E). […] The molecular monoisotopic masses of PcaTX-1a and PcaTX-1b were determined to be 4024.710 Da and 4024.709 Da, respectively (Figure 3B,C). […]
compound,measurement,value
"CC(C)C[C@@H]1NC(=O)[C@H](Cc2c[nH]cn2)NC(=O)[C@H](CCCCN)NC(=O)[C@@H]2CSSC[C@H](NC(=O)CNC(=O)[C@H](C)N)C(=O)N[C@@H](CCCCN)C(=O)N[C@@H](Cc3ccc(O)cc3)C(=O)N[C@@H](CC(C)C)C(=O)N[C@@H](Cc3ccccc3)C(=O)NCC(=O)N[C@@H](CO)C(=O)N[C@H]3CSSC[C@H](NC(=O)CNC1=O)C(=O)N[C@@H](CCCNC(=N)N)C(=O)N[C@@H](CCCNC(=N)N)C(=O)N[C@@H](CCCCN)C(=O)N[C@@H](C)C(=O)N1CCC[C@H]1C(=O)N[C@@H](CCC(N)=O)C(=O)N[C@@H](Cc1ccc(O)cc1)C(=O)N[C@H](C(=O)NCC(=O)N[C@@H](Cc1c[nH]c4ccccc14)C(=O)N[C@@H](CC(=O)NCC(=O)N[C@H](C(=O)N[C@@H](Cc1ccccc1)C(N)=O)[C@@H](C)O)C(=O)O)CSSC[C@H](NC(=O)[C@H](CC(=O)O)NC(=O)[C@H](CO)NC(=O)[C@H](CC(=O)O)NC(=O)[C@H](CCC(=O)O)NC(=O)[C@H](CCCCN)NC3=O)C(=O)N2 [PcaTX-1a] (H-AGCKYLFGSCKEDSDCCKHLGCRRKAPQYCGW[βAsp]GTF-NH2; disulfide 3-17, 10-22, 16-30)",decrease of partition coefficient (k') as compared to PcaTX-1b,9.3%
